According to patent US20130317095A1, “Use of Artemisine Derivatives and Pharmaceutical Salts Thereof” (Shanghai Institute of Materia Medica, Chinese Academy of …, priority 2011, published 2013):

What was measured:
[1] = test system: transplanted tumor with U937 cells; experiment: Mouse transplanted tumor model, U937; type: in vivo; conditions: mice, U937 tumor under the skin, intraperitoneal 0.1 ml per day, 18-35 d
Description: (§1) Developing mouse transplanted tumor models with acute myeloid leukemic cell lines such as Kasumi-1, HL60 and U937 cells, inject 1×10^7 leukemic cells under the skin. When the tumors are 5 mm in diameter, divide the mice into two groups, control group(con) and groups with SM1044 in various concentrations. Mice intraperitoneally infused with 0.125 ml (kasumi-1 and H160 cells) or 0.1 ml (U937 cells) SM1044 per day, while mice in control groups get equivalent saline, for a course of 18-35 d, measuring the tumors everyday.

Kasumi-1 cells [2] = experiment: Loss of mitochondrial membrane potential, DiOC6(3) flow cytometry, Kasumi-1; type: cell-based
Description: (§2) Respectively plate 3×10^5˜5×10^5 cells/ml of Kasumi-1, NB4-R1, HL60 and U937cells in dishes. Setting control group (0 μM) and groups with SM1044 in various concentrations, incubate for 24 h and 48 h. Add 20 nM DiOC6(3) and incubate for 15 min at 37° C. in the dark. Wash cells with PBS twice, and resuspend the cells in 100 μLPBS, analyzing by flow cytometry. The cells which are DiOC6(3) negative are those that lose mitochondrial membrane potential. […] There are at least two broad pathways that lead to Apoptosis, an “Extrinsic” and an “Intrinsic” Pathway, and the loss of mitochondrial membrane potential is very closely related to intrinsic pathway.

Kasumi-1 cells [3] = experiment: Cell cycle analysis, PI flow cytometry, Kasumi-1; type: cell-based; conditions: for cells in G0/G1 phase / cells in G2/M phase / cells in S phase: 24 hours
Description: (§3) Plate 5×10^5/mL Kasumi-1 cells and HL60 cells respectively in dishes. Setting control group (0 μM) and groups with SM1044 in various concentrations, and incubating for 24 hours (kasumi-1 cells) or 12 hours (HL60 cells). Harvest the cells, wash cells with PBS twice, and add 70% ice cold ethanol overnight to fix the cells. Wash cells with PBS, and resuspend the cells in PBS with 10 mg/ml RNase, incubating at 37° C. for 30 min. Add 50 μg/ml propidium iodide (PI), analyzing the distribution of DNA contents by flow cytometry in 1 hour.

[4] = test system: transplanted tumor with Kasumi-1 cells; experiment: Mouse transplanted tumor model, Kasumi-1; type: in vivo; conditions: mice, Kasumi-1 tumor under the skin, intraperitoneal 0.125 ml per day, 18-35 d
Description: as §1

[5] = test system: transplanted tumor with HL60 cells; experiment: Mouse transplanted tumor model, HL60; type: in vivo; conditions: mice, HL60 tumor under the skin, intraperitoneal 0.125 ml per day, 18-35 d
Description: as §1

NB4-R1 cells [6] = experiment: Loss of mitochondrial membrane potential, DiOC6(3) flow cytometry, NB4-R1; type: cell-based
Description: as §2

U937 cells [7] = experiment: Annexin V-FITC/PI flow cytometry apoptosis, U937; type: cell-based; conditions: U937, 24-48 hours, various concentrations
Description: (§4) Respectively plate 3×10^5˜5×10^5 cells/m1 of Kasumi-1, NB4-R1, HL60 and U937cells in dishes. Setting control group (0 μM) and groups with SM1044 in various concentrations, incubate for 24 h and 48 h. Harvest cells and wash cells with pre-cooling phosphate buffer twice. Resuspend the cells in 200 μL binding buffer, and add 5 μL Annexin V-FITC and 5 μL propidium iodide (PI), gently mixing, incubating for 15 min at room temperature in the dark, analyzing by flow cytometry in 1 hour.

U937 cells [8] = experiment: Loss of mitochondrial membrane potential, DiOC6(3) flow cytometry, U937; type: cell-based
Description: as §2

HL-60 cells = experiment: Loss of mitochondrial membrane potential, DiOC6(3) flow cytometry, HL-60; type: cell-based
Description: as §2

NB4-R1 cells [9] = experiment: MTT inhibition test, NB4-R1 cells; type: cell-based; conditions: 48 h
Description: (§5) First dissolve SM1044 in triple distilled water, concentration: 1 mg/ml, then choose typical AML cell lines such as Kasumi-1, NB4-R1, HL60 and U937 cells to perform the experiments. Plate 2.5×10^5 cells in dishes, respectively, blank group, control group without SM1044, and groups with SM1044 in various concentrations, and 3 wells for each concentration. Add MTT (5 mg/ml) to each well after incubating for a certain period, and incubate the plate for further 4 h. Centrifuge and aspirate 180 μl supernatant. Add 180 μl DMSO to each well, and place the plate a shaking table for 15 min. Measure the absorbance(A) at 570 nm using a microplate reader, and calculate the half maximal inhibitory concentration (IC50).

AML1-ETO fusion protein = target: T1, AML1-ETO fusion protein (Homo sapiens, UniProt Q01196+Q06455); experiment: Western blot of AML1-ETO fusion protein in Kasumi-1 cells; type: cell-based; conditions: Kasumi-1, 1 μM/L, 24 hours
T1 construct: Extracting whole protein of the cells; endogenous in cells; host or cells: Kasumi-1 cells
T1 sequence (Q01196+Q06455 fused): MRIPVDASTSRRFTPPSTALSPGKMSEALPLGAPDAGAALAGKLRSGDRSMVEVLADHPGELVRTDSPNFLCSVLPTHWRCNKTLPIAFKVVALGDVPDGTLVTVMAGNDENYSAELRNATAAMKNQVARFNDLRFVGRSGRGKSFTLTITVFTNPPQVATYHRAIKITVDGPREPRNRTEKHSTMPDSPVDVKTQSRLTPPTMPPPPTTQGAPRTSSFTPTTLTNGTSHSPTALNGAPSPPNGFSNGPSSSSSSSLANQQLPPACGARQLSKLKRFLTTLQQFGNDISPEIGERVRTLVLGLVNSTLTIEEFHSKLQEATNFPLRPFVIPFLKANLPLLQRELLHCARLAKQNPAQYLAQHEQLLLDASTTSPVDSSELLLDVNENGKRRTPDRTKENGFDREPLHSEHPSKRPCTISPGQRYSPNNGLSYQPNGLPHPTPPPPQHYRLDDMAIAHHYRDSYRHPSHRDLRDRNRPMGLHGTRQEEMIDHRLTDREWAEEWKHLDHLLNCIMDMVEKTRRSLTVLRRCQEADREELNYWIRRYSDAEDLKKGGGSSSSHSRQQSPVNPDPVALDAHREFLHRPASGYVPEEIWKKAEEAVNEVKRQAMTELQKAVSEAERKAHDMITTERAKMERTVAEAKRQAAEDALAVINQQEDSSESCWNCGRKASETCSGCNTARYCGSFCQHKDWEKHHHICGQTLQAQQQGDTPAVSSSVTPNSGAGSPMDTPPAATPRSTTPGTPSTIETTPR
Description: (§6) Plate 1×10^7 Kasumi-1 cells with 20 mL medium in dish. Setting control group (0 μM) and groups with SM1044 in various concentrations, and incubating for 24 hours. Extract the whole RNA, and detect the variation of fusion gene at the mRNA level by RT-PCR (FIG. 5A). […] Plate 5×10^5 Kasumi-1 cells in a dish. Setting control group (0 μM) and groups with SM1044 in various concentrations, and incubating for 24 hours. Extracting whole protein of the cells, detect the variation of AML1-ETO fusion protein by ETO antibody through western blot (FIG. 5B). […] It can be concluded that SM1044 doesn't effect the transcription of AML1-ETO fusion gene, but can induce the degradation of the fusion protein. As the typical fusion gene of AML-M2b, AML1-ETO fusion protein plays an important role in the occurrence of leukemia, which can be a target for medical treatments.

AML1-ETO fusion gene = experiment: RT-PCR of AML1-ETO fusion gene mRNA in Kasumi-1 cells; type: cell-based; conditions: Kasumi-1, 24 hours
Description: as §6

[10] = test system: caspase-3, caspase-8 and/or caspase-9 in U937 cells; experiment: Western blot of apoptosis-related proteins, U937; type: cell-based; conditions: U937, 24 hours
Description: (§7) Respectively plate 3×10^5˜5×10^5 cells/ml of NB4-R1, HL60 and U937 cells in dishes. Setting control group (0 μM) and groups with SM1044 in various concentrations, and incubating for 24 hours. Extracting whole protein of the cells, detect the quantitive variation of […] related proteins (PARP, caspase-3, caspase-8, caspase-9) by antibodies through western blot. Caspase family plays an important role in mediating apoptosis. There are at least two broad pathways that lead to Apoptosis. One is extracellular signals activating intracellular caspase-8, etc, the other is mitochondria-derived activators of caspases activating caspase-9, etc. Therefore the activaigted caspases activate apoptotic excutants—caspase3 to induce apoptosis, and PARP is the substrate of caspase-3.

HL60 cells [11] = experiment: MTT inhibition test, HL60 cells; type: cell-based; conditions: Homo sapiens, HL-60, 48 h
Description: as §5

[12] = test system: caspase-3, caspase-8 and/or caspase-9 in HL60 cells; experiment: Western blot of apoptosis-related proteins, HL60; type: cell-based; conditions: HL60, 24 hours
Description: as §7

U937 cells [13] = experiment: MTT inhibition test, U937 cells; type: cell-based; conditions: Homo sapiens, U-937, 48 h
Description: as §5

Kasumi-1 cells [14] = experiment: Annexin V-FITC/PI flow cytometry apoptosis, Kasumi-1; type: cell-based; conditions: Kasumi-1, 24-48 hours, various concentrations
Description: as §4

Kasumi-1 cells [15] = experiment: MTT inhibition test, Kasumi-1 cells; type: cell-based; conditions: Homo sapiens, 48 h
Description: as §5

HL60 cells [16] = experiment: Annexin V-FITC/PI flow cytometry apoptosis, HL60; type: cell-based; conditions: HL60, 24-48 hours, various concentrations
Description: as §4

[17] = test system: caspase-3, caspase-8 and/or caspase-9 in NB4-R1 cells; experiment: Western blot of apoptosis-related proteins, NB4-R1; type: cell-based; conditions: NB4-R1, 24 hours
Description: as §7

oncogene c-myc = experiment: Western blot of c-myc expression in HL60 cells; type: cell-based; conditions: HL60, above 1 μM/L, 24 hours
Description: Plate 3×10^5/mL HL60 cells in dishes. Setting control group (0 μM) and groups with SM1044 in various concentrations, and incubating for 24 hours. Extracting whole protein of the cells, detect the variation of expression of oncogene c-myc by c-myc antibody through western blot. Over-expression of oncogene c-myc is a character of HL60 cells.

HL60 cells [18] = experiment: Cell cycle analysis, PI flow cytometry, HL60; type: cell-based; conditions: for cells in G0/G1 phase / cells in G2/M phase / cells in S phase: 12 hours
Description: as §3

NB4-R1 cells [19] = experiment: Annexin V-FITC/PI flow cytometry apoptosis, NB4-R1; type: cell-based; conditions: NB4-R1, 24-48 hours, various concentrations
Description: as §4

Structure (SMILES): C[C@H]1[C@@H](OCCNCCO[C@H]2O[C@@H]3O[C@@]4(C)CC[C@H]5[C@H](C)CC[C@@H]([C@H]2C)[C@@]35OO4)O[C@@H]2O[C@@]3(C)CC[C@H]4[C@H](C)CC[C@@H]1[C@@]24OO3.O=C(O)/C=C\C(=O)O [SM1044, diarteethe amine maleate]
- tumor size compared with control group [1]: obviously little than controls
- percentage of DiOC6(3) negtive Kasumi-1 cells (Kasumi-1 cells [2]; 0.1 μM, 24 h): 24.1%
- percentage of DiOC6(3) negtive Kasumi-1 cells (Kasumi-1 cells [2]; 0.1 μM, 48 h): 44.9%
- percentage of DiOC6(3) negtive Kasumi-1 cells (Kasumi-1 cells [2]; 1 μM, 24 h): 33.8%
- percentage of DiOC6(3) negtive Kasumi-1 cells (Kasumi-1 cells [2]; 1 μM, 48 h): 47.1%
- percentage of DiOC6(3) negtive Kasumi-1 cells (Kasumi-1 cells [2]; 5 μM, 24 h): 63.2%
- percentage of DiOC6(3) negtive Kasumi-1 cells (Kasumi-1 cells [2]; 5 μM, 48 h): 79.2%
- cells in G0/G1 phase (Kasumi-1 cells [3]; Kasumi-1, 0.1 μM): 59.62%
- cells in G2/M phase (Kasumi-1 cells [3]; Kasumi-1, 0.1 μM): 6.01%
- cells in S phase (Kasumi-1 cells [3]; Kasumi-1, 0.1 μM): 34.37%
- cells in G0/G1 phase (Kasumi-1 cells [3]; Kasumi-1, 1 μM): 71.75%
- cells in G2/M phase (Kasumi-1 cells [3]; Kasumi-1, 1 μM): 6.70%
- cells in S phase (Kasumi-1 cells [3]; Kasumi-1, 1 μM): 21.75%
- cells in G0/G1 phase (Kasumi-1 cells [3]; Kasumi-1, 5 μM): 71.07%
- cells in G2/M phase (Kasumi-1 cells [3]; Kasumi-1, 5 μM): 6.00%
- cells in S phase (Kasumi-1 cells [3]; Kasumi-1, 5 μM): 21.92%
- cell cycle block (Kasumi-1 cells [3]; Kasumi-1, 24 hours): blocked in G0/G1 phase
- tumor size compared with control group [4]: obviously little than controls
- tumor size compared with control group [5]: obviously little than controls
- percentage of DiOC6(3) negative NB4-R1 cells (NB4-R1 cells [6]; 0.1 μM, 24 h): 13.9%
- percentage of DiOC6(3) negative NB4-R1 cells (NB4-R1 cells [6]; 0.1 μM, 48 h): 16.3%
- percentage of DiOC6(3) negative NB4-R1 cells (NB4-R1 cells [6]; 1 μM, 24 h): 17.1%
- percentage of DiOC6(3) negative NB4-R1 cells (NB4-R1 cells [6]; 1 μM, 48 h): 33.0%
- percentage of DiOC6(3) negative NB4-R1 cells (NB4-R1 cells [6]; 5 μM, 24 h): 15.0%
- percentage of DiOC6(3) negative NB4-R1 cells (NB4-R1 cells [6]; 5 μM, 48 h): 30.0%
- apoptosis induction (U937 cells [7]): can induce apoptosis
- percentage of DiOC6(3) negative U937 cells (U937 cells [8]; 0.1 μM, 24 h): 4.3%
- percentage of DiOC6(3) negative U937 cells (U937 cells [8]; 0.1 μM, 48 h): 5.9%
- percentage of DiOC6(3) negative U937 cells (U937 cells [8]; 1 μM, 24 h): 5.2%
- percentage of DiOC6(3) negative U937 cells (U937 cells [8]; 1 μM, 48 h): 5.6%
- percentage of DiOC6(3) negative U937 cells (U937 cells [8]; 5 μM, 24 h): 9.4%
- percentage of DiOC6(3) negative U937 cells (U937 cells [8]; 5 μM, 48 h): 16.2%
- percentage of DiOC6(3) negative HL-60 cells (HL-60 cells; 0.1 μM, 24 h): 23.8%
- percentage of DiOC6(3) negative HL-60 cells (HL-60 cells; 0.1 μM, 48 h): 61.7%
- percentage of DiOC6(3) negative HL-60 cells (HL-60 cells; 1 μM, 24 h): 25.6%
- percentage of DiOC6(3) negative HL-60 cells (HL-60 cells; 1 μM, 48 h): 77.1%
- percentage of DiOC6(3) negative HL-60 cells (HL-60 cells; 5 μM, 24 h): 48.5%
- percentage of DiOC6(3) negative HL-60 cells (HL-60 cells; 5 μM, 48 h): 81.1%
- IC50 (NB4-R1 cells [9]): 0.021 µM
- degradation of AML1-ETO fusion protein (AML1-ETO fusion protein): can induce the degradation of AML1-ETO fusion protein
- variation of AML1-ETO fusion gene at the mRNA level (AML1-ETO fusion gene): no effect on the transcription of fusion gene
- activated apoptosis-related proteins (caspase-3, caspase-8 and/or caspase-9) [10]: increase
- IC50 (HL60 cells [11]): 0.04 µM
- activated apoptosis-related proteins (caspase-3, caspase-8 and/or caspase-9) [12]: increase
- IC50 (U937 cells [13]): 0.02 µM
- apoptosis induction (Kasumi-1 cells [14]): can induce apoptosis
- IC50 (Kasumi-1 cells [15]): 0.17 µM
- apoptosis induction (HL60 cells [16]): can induce apoptosis
- activated apoptosis-related proteins (caspase-3, caspase-8 and/or caspase-9) [17]: increase
- expression of oncogene c-myc (oncogene c-myc): completely inhibit
- cells in G0/G1 phase (HL60 cells [18]; HL60, 0.1 μM): 41.60%
- cells in G2/M phase (HL60 cells [18]; HL60, 0.1 μM): 3.80%
- cells in S phase (HL60 cells [18]; HL60, 0.1 μM): 54.61%
- cells in G0/G1 phase (HL60 cells [18]; HL60, 1 μM): 44.12%
- cells in G2/M phase (HL60 cells [18]; HL60, 1 μM): 8.00%
- cells in S phase (HL60 cells [18]; HL60, 1 μM): 47.88%
- cells in G0/G1 phase (HL60 cells [18]; HL60, 5 μM): 54.48%
- cells in G2/M phase (HL60 cells [18]; HL60, 5 μM): 8.00%
- cells in S phase (HL60 cells [18]; HL60, 5 μM): 37.52%
- cell cycle block (HL60 cells [18]; HL60, 12 hours): blocked in G0/G1 phase
- apoptosis induction (NB4-R1 cells [19]): can induce apoptosis
